# Patent US9018213B2, “Alicyclic[c] benzopyrone derivatives and uses thereof” (Huazhong University of Science & Technology, priority 2011, dated 2015)
# What was measured:
# [1] = in vivo; conditions: both sexes, mouse, in vivo; po, mice, single intragastric administration; read-out: LD50
# Method: Limit Test of Sequential Assay
# KM mice (half male and half female) were randomly divided into several groups (with 2-5 mice in each group), which were respectively the 2000 mg/kg groups for each compound, and the solvent group. 0.2 ml/10 g were administered intragastrically. The death of the animals in 3 days were observed. (In the case 3 or more animals survived in 3 days without notable abnormity in their life states, the observation was continued until the assay was completed in 7 days. In the case 3 or more animals died in 3 days, the median lethal dose method was used to determine the LD50).
# Pre-Assay for the Median Lethal Dose Method
# 0.2 ml/10 g were administered intragastrically, and the death of the animals in 1-3 days were observed.
# [2] = biological target: D3 receptor (Homo sapiens (Human), UniProt P35462); assay: D3 receptor competitive binding assay ([3H]-Spiperone, HEK-293 cells)
# Method: After the cells were centrifuged at 1000 rpm for 5 min, the supernatant was discarded, and the cell pellet was collected and stored in a -20° C. fridge for reservation. It was re-suspended with Tris-Cl (pH 7.4) in the assay. […] Tris was divided into aliquots by […] Technology Inc. Procedures Competitive binding test for receptors: 20 μl of each of the test compounds and 20 μl of the radioactive ligand together with 160 μl of the receptor proteins were added into the reaction tubes, and the final concentrations of the test compound and the positive drug were all 10 μmol/L. After 50 min of incubation in 30° C. water bath, the tubes were immediately moved to ice bath to terminate the reactions. GF/C glass fiber filter papers were used for rapid sucking filtration on a Millipore cell sample collector, elution buffer (50 mM Tris-HCl, PH 7.4) was applied for 3 ml×3 times, and microwave was applied for 4-5 min for drying. The filter papers were moved into 0.5 ml centrifuge tubes, and 500 μl of lipid-soluble scintillation solution was added. The tubes were allowed to stand still for over 30 min in dark, and the intensities of radioactivity were measured by a counter.
# [3] = test system: mice of Kunming breed; assay: MK-801 induced high activity; assay type: in vivo
# Method: Healthy mice of Kunming breed (with half male and half female, (20±2) g) were provided by Qinglongshan Animal Cultivation Center, Nanjing.
# Ascorbic acid was provided by Sinopharm Chemical Reagent Co. Ltd.
# Tween 80, with the concentration of 10%.
# Subsequently, the spontaneous activities of the mice of each group in 90 min were measured.
# [4] = biological target: D2 receptor (Rattus norvegicus (Rat), UniProt P61169); assay: D2 receptor inhibition binding assay (3H-Spiperone)
# Method: Rats were sacrificed by cervical dislocation on ice. Cerebral cortex was rapidly taken, and 2 cerebral cortexes were combined into a centrifuge tube, to which 3 ml of buffer (0.05 M Tris-HCl buffer, containing NaCl 120 mM, KCl 5 mM, MgCl2 1 mM, CaCl2 1 mM) was added, homogenization was conducted for 3-4 s at level 4 for four times, and then 5 ml of buffer was then added. The weight of the homogenized tubes were adjusted using a balance, and centrifugation was conducted at 12000 r, 4° C. for 20 min. The supernatant was discarded, and 3 ml of B solution was added. Vortex mixer was used for blending, and then 5 ml of B solution was added. Centrifugation was conducted and repeated 3 times. After the centrifugations, the supernatant was discarded, and the pellets were stored at −80° C. for future use.
# Beckman LS-6500 Multi-function Liquid Scintillation Counter was used.
# (1) The prepared membrane was first applied with appropriate amount of homogenized liquid, and homogenizer was used for evenly dispersing. 15 tubes were mixed into a 100 ml container, and appropriate amount of homogenized liquid was added to give 50 ml of membrane suspension, which was reserved for future use.
# (2) 100 μL of membrane preparation and 100 μL of buffer were added into each reaction tube.
# (3) 100 μL of homogenized liquid was added into the total binding tube (TB), 100 μL of Butaclamol (final concentration 10^−5 M) was added into the non-specific binding tube (NB), and 100 μL of the test compound (final concentration 10^−5 M) was added into the specific binding tube (SB) for each compound.
# (5) Each of the reaction tubes was incubated at 37° C. for 20 min. After the reaction was completed, the bound ligands were rapidly filtered under reduced pressure, and the ice-chilled assay buffer was used for adequate washing. The filter was taken out and put into a 3 ml scintillation vial, and 2 ml of toluene scintillation solution was added and blended.
# (6) The scintillation vials were put into Liquid Scintillation Counter for counting. Inhibitory rate (I %)=(Total binding tube cpm−compound cpm)/(Total binding tube cpm−non-specific binding tube cpm)×100%
# Each assay for the compounds was conducted in duplicate.
# [5] = biological target: 5HT1A receptor (Rattus norvegicus (Rat), UniProt P19327); assay: 5HT1A receptor binding assay (3H-8-OH-DPAT)
# Method: Preparation of 5HT1A Membrane
# Incubation at 37° C. was conducted for 10 min, the weight of the tubes were adjusted using a balance after incubation. […] Centrifugation was conducted and repeated 3 times.
# Materials for the Receptor Binding Assay
# [6] = biological target: 5HT2C receptor (Rattus norvegicus (Rat), UniProt P08909); assay: 5HT2C receptor binding assay ([3H]-mesulergine)
# [7] = biological target: 5HT2A receptor (Rattus norvegicus (Rat), UniProt P14842); assay: 5HT2A receptor binding assay ([3H]-Ketanserin)
# [8] = test system: KM mice; assay: Apomorphine induced clambering assay of mice; assay type: in vivo; conditions: for Scoring (value), apomorphine induced clambering: x ± s, n = 10
# Method: Apomorphine Induced Clambering Assay of Mice
# Healthy KM mice (male, with body weight of 18-22 g) were provided by Qinglongshan Animal Cultivation Center, Nanjing.
# Apomorphine provided by Sigma Company was dissolved in 0.9% NaCl (containing 0.1% vitamin C) before use, and was freshly formulated before use.
# Vitamin C, F20061113, was provided by Sinopharm Chemical Reagent Co. Ltd.
# Sodium chloride injection, H32026305, was provided by Xuzhou No. 5 Pharmaceutical Factory Co. Ltd.
# Instruments: self-made clambering cage, chronograph.
# Procedures: apomorphine induced clambering assay of mice
# After 5 min of adaptation, the behaviors of the mice at 10-11, 20-21, and 30-31 min after the injection of apomorphine were observed and scored. Scoring criteria: 4 paws on the floor was scored as 0; 2 forepaws on the cage was scored as 1; and 4 paws on the cage was scored as 2.
# [9] = Catalepsy assay; conditions: both, Kunming (KM), mouse, in vivo, po
# Method: (§1) Healthy mice of Kunming breed (with half male and half female, (22±2) g) were provided by Qinglongshan Animal Cultivation Center, Nanjing.
# (§2) The durations for the mice to maintain the posture with the two forepaws on the bars were recorded, and 30 s of spasticity without moving was considered as the positive response. In the case the forepaws of the mice were not put down persistently, the observation was terminated at 60 s. The numbers of animals with positive response in each of the compound dosage groups were counted.
# [10] = test system: KM mice; assay: Catalepsy assay; conditions: mouse, in vivo
# Method: as §1, §2
# Sequence of D2 receptor (P61169 whole entry): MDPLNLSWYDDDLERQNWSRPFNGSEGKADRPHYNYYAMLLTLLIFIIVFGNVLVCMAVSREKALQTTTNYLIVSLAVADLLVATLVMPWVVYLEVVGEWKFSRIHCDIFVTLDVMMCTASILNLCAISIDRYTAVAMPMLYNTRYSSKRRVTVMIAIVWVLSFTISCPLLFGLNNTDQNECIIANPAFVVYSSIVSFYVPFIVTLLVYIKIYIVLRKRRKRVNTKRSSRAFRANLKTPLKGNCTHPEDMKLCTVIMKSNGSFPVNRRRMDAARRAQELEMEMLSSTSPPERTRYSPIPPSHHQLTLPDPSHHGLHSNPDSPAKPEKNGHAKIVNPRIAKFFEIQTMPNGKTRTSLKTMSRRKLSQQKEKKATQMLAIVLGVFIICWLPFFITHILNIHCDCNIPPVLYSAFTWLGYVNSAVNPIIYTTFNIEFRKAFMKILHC
# Sequence of D3 receptor (P35462 whole entry): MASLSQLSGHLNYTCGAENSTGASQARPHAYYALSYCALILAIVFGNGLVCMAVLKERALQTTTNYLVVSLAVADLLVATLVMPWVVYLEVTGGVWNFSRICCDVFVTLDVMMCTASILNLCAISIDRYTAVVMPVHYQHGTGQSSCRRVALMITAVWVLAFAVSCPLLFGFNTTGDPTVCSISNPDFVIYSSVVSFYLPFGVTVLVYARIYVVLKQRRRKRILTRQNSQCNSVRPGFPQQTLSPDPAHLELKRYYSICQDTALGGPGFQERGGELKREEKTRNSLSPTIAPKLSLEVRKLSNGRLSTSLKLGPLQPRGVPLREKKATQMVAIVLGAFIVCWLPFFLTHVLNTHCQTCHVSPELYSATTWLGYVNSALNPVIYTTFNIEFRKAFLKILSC
# Sequence of 5HT2C receptor (P08909 33-460): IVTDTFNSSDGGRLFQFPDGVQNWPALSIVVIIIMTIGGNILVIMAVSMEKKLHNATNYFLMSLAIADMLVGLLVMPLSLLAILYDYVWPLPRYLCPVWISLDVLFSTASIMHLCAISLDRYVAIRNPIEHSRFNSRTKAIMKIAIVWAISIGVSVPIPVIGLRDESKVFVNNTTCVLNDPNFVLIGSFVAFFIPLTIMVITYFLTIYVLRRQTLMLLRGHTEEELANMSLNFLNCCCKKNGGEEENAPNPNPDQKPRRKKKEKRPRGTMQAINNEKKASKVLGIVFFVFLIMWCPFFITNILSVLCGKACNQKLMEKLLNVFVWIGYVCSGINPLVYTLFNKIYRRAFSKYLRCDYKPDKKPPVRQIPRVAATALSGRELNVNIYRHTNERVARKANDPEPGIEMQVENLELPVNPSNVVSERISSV
# Sequence of 5HT1A receptor (P19327 whole entry): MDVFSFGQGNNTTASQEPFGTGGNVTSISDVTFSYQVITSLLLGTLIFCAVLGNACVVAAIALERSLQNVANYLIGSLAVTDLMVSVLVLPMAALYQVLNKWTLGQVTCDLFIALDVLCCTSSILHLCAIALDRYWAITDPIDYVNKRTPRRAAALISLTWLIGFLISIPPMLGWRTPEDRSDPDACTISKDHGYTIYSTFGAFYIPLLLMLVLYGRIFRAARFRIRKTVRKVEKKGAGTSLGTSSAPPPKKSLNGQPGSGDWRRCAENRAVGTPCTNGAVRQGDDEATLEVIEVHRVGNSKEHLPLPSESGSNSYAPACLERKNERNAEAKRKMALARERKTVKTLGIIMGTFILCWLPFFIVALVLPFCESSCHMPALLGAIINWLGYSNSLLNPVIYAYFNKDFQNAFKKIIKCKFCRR
# Sequence of 5HT2A receptor (P14842 whole entry): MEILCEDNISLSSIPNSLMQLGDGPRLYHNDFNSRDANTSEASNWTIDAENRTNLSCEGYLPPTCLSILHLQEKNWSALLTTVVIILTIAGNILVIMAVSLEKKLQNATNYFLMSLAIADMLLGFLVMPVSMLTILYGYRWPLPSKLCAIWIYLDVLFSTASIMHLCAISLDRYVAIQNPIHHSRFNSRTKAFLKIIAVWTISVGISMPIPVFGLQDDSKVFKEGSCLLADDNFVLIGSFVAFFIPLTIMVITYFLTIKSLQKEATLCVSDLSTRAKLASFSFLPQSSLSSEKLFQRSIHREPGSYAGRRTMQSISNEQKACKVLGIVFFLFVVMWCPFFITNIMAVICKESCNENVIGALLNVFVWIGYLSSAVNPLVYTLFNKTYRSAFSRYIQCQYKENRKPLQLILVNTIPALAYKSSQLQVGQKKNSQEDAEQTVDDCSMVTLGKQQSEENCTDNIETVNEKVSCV
compound,measurement,setting,value
"COc1ccccc1N1CCN(CCCCOc2ccc3c4c(c(=O)oc3c2)CCC4)CC1 [Compound 7, 7-{4-[4-(2-methoxyphenyl)piperazin-1-yl]-butoxy}-2,3-dihydro-1H-cyclopenteno[c]benzopyran-4-one]",LD50,[1],> 2000 mg/kg
same,IC50,[2],7.4 nM
same,affinity for D3 receptor (in words),[2]; in vitro assay,relatively stronger affinities
same,ED50,"[3]; Mus musculus, po, mice",2.05 mg/kg
same,effect on MK-801 induced high activity (in words),[3]; compared to the model group,significantly improve
same,IC50,[4],2.1 nM
same,affinity for D2 receptor (in words),[4]; in vitro assay,relatively stronger affinities
same,IC50,[5],0.08 nM
same,affinity for 5-HT1A receptor (in words),[5]; in vitro assay,relatively stronger affinities
same,IC50,[6],1300 nM
same,affinity for 5HT2C (in words),[6]; in vitro assay,lower affinity
same,IC50,[7],0.78 nM
same,affinity for 5-HT2A receptor (in words),[7]; in vitro assay,relatively stronger affinities
same,ED50,"[8]; Mus musculus, po, mice, read-out: apomorphine induced clambering ED50",0.13 mg/kg
same,effect on apomorphine induced clambering symptoms (in words),[8]; compared to the model group,effectively improve
same,"Scoring (value), apomorphine induced clambering",[8]; dosage 3 mg/kg,3.50 ± 1.96
same,"Scoring (value), apomorphine induced clambering",[8]; dosage 10 mg/kg,2.60 ± 1.58
same,"Scoring (value), apomorphine induced clambering",[8]; dosage 30 mg/kg,1.80 ± 1.40
same,"Scoring (value), apomorphine induced clambering",[8]; dosage 100 mg/kg,0.00 ± 0.00
same,ED50,[9],261 mg/kg
same,EPS at effective dosage (in words),[10],did not cause EPS at effective dosage
